Data: patent EP2098226A1, “AKAP-PKA interaction inhibitors for use in the treatment of heart diseases” (Forschungsverbund Berlin e.V., priority 2008, dated 2009)
Where two headings read alike, the source gives them in different places.

Legend:
[1] = tested on: neonatalen Kardiomyozyten aus der Ratte; assay: cAMP level in neonatal cardiomyocytes, ELISA-based assay; format: cell-based; conditions: substances 50 µM in the presence of Isoproterenol 100 nM
Protocol: (§1) Die Substanzen 1025, 1026, 1027 und 1028 steigern in Gegenwart des β-Adrenozeptoragonisten Isoproterenol den cAMP-Spiegel in neonatalen Kardiomyozyten aus der Ratte. Die Zellen wurden unbehandelt belassen, mit Isoproterenol allein (100 nM) oder mit Isoproterenol (100 nM) und den Substanzen (50 µM) inkubiert. Der cAMP-Spiegel wurde durch einen ELISA-basierten Assay bestimmt.

RIIα = RIIα (Homo sapiens, UniProt P13861); assay: Biacore: direct binding of substances to covalently immobilised RIIα; conditions: for Bindungen des Peptids Ht31 und der Substanz an RIIα: RIIα surface incubated with peptide Ht31 and additionally with the substance; for Bindung an RIIα: surfaces covalently coated with RIIα, incubated with the substances
Sequence of RIIα (P13861 whole entry): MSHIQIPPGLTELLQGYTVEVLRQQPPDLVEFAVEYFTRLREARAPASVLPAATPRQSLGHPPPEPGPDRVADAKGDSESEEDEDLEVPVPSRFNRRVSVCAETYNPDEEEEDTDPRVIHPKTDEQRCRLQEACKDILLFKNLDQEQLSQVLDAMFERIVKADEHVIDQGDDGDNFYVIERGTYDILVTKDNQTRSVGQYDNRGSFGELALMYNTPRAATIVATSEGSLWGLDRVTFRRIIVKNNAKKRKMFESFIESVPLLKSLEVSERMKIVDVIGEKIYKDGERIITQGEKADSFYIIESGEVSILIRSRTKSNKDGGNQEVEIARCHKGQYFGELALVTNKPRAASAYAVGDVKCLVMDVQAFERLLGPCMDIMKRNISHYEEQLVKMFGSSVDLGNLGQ
Text: Biacore-Messungen zum Nachweis der Bindung der Substanz 1026 an RIIα. Es wurden Oberflächen durch kovalente Bindung mit RIIα beschichtet und mit der Substanz in den angegebenen Konzentrationen inkubiert.
Die Bindungen des Peptids Ht31 und der Substanz 1026 an RIIα sind additiv. Es wurden Oberflächen durch kovalente Bindung mit RIIα beschichtet und mit dem Peptid Ht31, das an die sog. Dimerisierungs- und docking-Domäne (DD-Domäne) von regulatorischen Untereinheiten der PKA bindet, inkubiert.
Es wurden Oberflächen durch kovalente Bindung mit RIIα beschichtet und mit den Substanzen inkubiert.

PKA [2] = biological target: PKA (Homo sapiens, UniProt P31323); assay: PKA activation in vitro (Peptag substrate peptide phosphorylation); format: biochemical; conditions: 1 mM, catalytic subunits with or without RIIβ subunits
Sequence of PKA (Homo sapiens, UniProt P31323) (P31323 whole entry): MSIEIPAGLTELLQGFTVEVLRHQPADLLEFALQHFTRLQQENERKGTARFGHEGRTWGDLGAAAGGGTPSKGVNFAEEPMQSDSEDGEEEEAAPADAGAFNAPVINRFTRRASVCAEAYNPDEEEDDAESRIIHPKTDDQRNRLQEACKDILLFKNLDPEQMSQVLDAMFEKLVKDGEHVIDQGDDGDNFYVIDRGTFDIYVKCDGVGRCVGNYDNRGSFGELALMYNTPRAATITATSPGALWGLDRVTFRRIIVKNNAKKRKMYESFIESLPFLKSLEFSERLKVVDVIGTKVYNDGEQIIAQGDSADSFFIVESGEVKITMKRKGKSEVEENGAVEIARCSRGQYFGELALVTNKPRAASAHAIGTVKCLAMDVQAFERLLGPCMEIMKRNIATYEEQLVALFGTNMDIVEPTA
Protocol: Die Substanz 18882 (FMP-API-1) aktiviert PKA in vitro. Das Experiment wurde wie in Abb. 24 dargestellt durchgeführt. Hier wurde zusätzlich mit AKAP18δ inkubiert. Katalytische Untereinheiten der PKA wurden in An- oder Abwesenheit von regulatorischen RIIβ-Untereinheiten mit der Substanz 18882 (FMP-API-1; 1 mM) inkubiert. Die Aktivierung der PKA wurde anhand der Phosphorylierung des fluoreszierenden Substratpeptids Peptag verfolgt und quantifiziert. Die semiquantitative Analyse der Peptag-Peptidphosphorylierung wurde densitometrisch vorgenommen (Mittelwerte ± SEM). Die Gegenwart des AKAP hat einen geringen zusätzlich Einfluß auf den Effekt der Substanz 18882.

[3] = tested on: Interaktionen von regulatorischen RII-Untereineinheiten der PKA (RIIα und β) mit AKAP150, dem AKAP Yotiao und AKAP18δ; assay: cAMP-agarose precipitation with Western blot detection of precipitated AKAPs; format: cell-based; conditions: neonatal cardiomyocytes; FMP-API-1 100 µM; precipitated AKAPs detected by Western blot
Protocol: Die Verbindungen 18882 (FMP-API-1), 1016, 1020 und 1021 (siehe Tabelle 1) hemmen die Interaktionen von regulatorischen RII-Untereineinheiten der PKA (RIIα und β) mit AKAP150, dem AKAP Yotiao und AKAP18δ. Es wurden cAMP-Agarose-Präzipitationen mit neonatalen Kardiomyozyten in Ab- oder Anwesenheit des AKAP-PKA-Interaktionshemmers FMP-API-1 (100 µM), einer Kontrollsubstanz (100 µM) und cAMP (50 mM) durchgeführt. cAMP-Agarose bindet regulatorische Untereinheiten der PKA und deren Bindungspartner, inklusive AKAP. Präzipitierte AKAP wurden mit spezifischen Antikörpern mittels Western Blot detektiert.

[4] = tested on: neonatalen Kardiomyozyten aus der Ratte; assay: cAMP level in neonatal cardiomyocytes, radioimmunoassay (RIA); format: cell-based; conditions: substances 50 µM in the presence of Isoproterenol 100 nM
Protocol: as §1, with “18882 (FMP-API-1), 1004, 1010, 1016, 1020, 1021” for “1025, 1026, 1027”, “1023” for “1028”, “nM),” for “nM) oder”, “µM) oder mit Forskolin” for “µM)”, “Radioimmuno-Assay (RIA)” for “einen ELISA-basierten Assay”

[5] = tested on: AKAP18δ und regulatorischen RIIα- und RIIβ-Untereinheiten; assay: Oligomerisation of AKAP18δ and RII subunits in neonatal cardiomyocytes (cAMP-agarose precipitation, Western blot); format: cell-based; conditions: neonatal cardiomyocytes incubated with the substances
Text: Neonatale Kardiomyozyten wurden mit den Substanzen in den angegebenen Konzentrationen inkubiert. A. Anschließend wurde eine cAMP-Agarose-Präzipitation und ein Western Blot (WB) zur Detektion von AKAP18δ durchgeführt. Als Negativkontrolle wurde die cAMP-Agarose mit cAMP inkubiert, das die Bindung von R-Untereinheiten an die Agarose verhindert. B. Detektion von RIIβ in Lysaten von neonatalen Kardiomyozyten. C. Detektion von AKAP18δ, RIIα und RIIβ nach Inkubation mit den Substanzen.

Rattenherzen = assay: Langendorff isolated heart: left ventricular pressure, contraction and relaxation rates; design: species or system Ratte; conditions: perfused rat hearts, 10 µM, n ≥ 8 hearts per condition
Protocol: Bestimmung der linksventrikulären Druckentwicklung, der maximalen Kontraktions- (CR) und Relaxationsraten (RR) von Rattenherzen (in %) in einer Langendorff-Herz-Apparatur.
zeigt den Einfluss von Isoproterenol, DMSO, den Substanzen 1016, 1020 und 1021 auf die relative Zellgröße der Kardiomyozyten bezogen auf die durchschnittliche Zellgröße von Kontrollzellen (%). Kardiomyozyten wurden für 48h entweder unbehandelt belassen oder mit 15 µM Isoproterenol als Kontrollen inkubiert. Da die Kardiomyozyten zusätzlich zu der Substanz mit höchstens 0,1% DMSO inkubiert wurden, wurden Kardiomyozyten nur mit 0,1% für 48h inkubiert. Des Weiteren wurde ein möglicher Effekt von DMSO auf die Isoproterenolinduzierte Hypertrophie untersucht und die Zellen demnach mit 0,1% DMSO für 20 min präinkubiert und anschließend mit 15 µM Isoproterenol für 48 h inkubiert. Außerdem wurden Kardiomyozyten mit den Substanzen 1016, 1020 und 1021 in den Konzentrationen 3, 10, 30, 50 oder 75 µM für 48 h ohne Isoproterenol inkubiert. Des Weiteren wurden Kardiomyozyten mit den Substanzen 1016, 1020 und 1021 in den Konzentrationen 3, 10, 30, 50 oder 75 µM präinkubiert. Dann wurde Isoproterenol (15 µM) zu den Endkonzentrationen von 3, 10, 30, 50 oder 75 µM zugegeben und die Kardiomyozyten damit für 48 h inkubiert. Nach der Inkubation mit den Substanzen wurde α-Aktinin immunfluoreszenzmikroskopisch dargestellt. […]

Phopholamban (PLB) = assay: Phospholamban phosphorylation in neonatal cardiomyocytes (Western blot); format: cell-based; conditions: 300 µM for 5 min; p-PLB relative to Calsequestrin
Protocol: Die Zellen wurden mit DMSO (control), dem β-Adrenozeptoragonisten Isoproterenol (ISO) oder dem AKAP-PKA-Interaktionshemmer FMP-API-1 bzw. dessen Derivaten (300 µM) für 5 min. inkubiert, anschließend lysiert und im Western Blot wurde phosphoryliertes Phospholamban (p-PLB) mittels eines spezifischen anti-Phospholambanantikörpers detektiert. Calsequestrin, ein Protein des sarkoplasmatischen Retikulums, dient als Ladungskontrolle. Für die Quantifizierung (densitometrische Auswertung) wurde die p-PLB-Menge auf die Menge von Calsequestrin bezogen. Angegeben sind relative densitometrische Einheiten (RDU; Mittelwerte ± SEM, drei unabhängige Experimente).

[6] = tested on: kultivierten adulten Kardiomyozyten; assay: Contractility of cultured adult cardiomyocytes (Fura-2, field stimulation); format: cell-based; conditions: 10µM; calcium fluxes and cell shortening parameters
Protocol: Die Substanzen 18882 (FMP-API-1) und 1016 steigern die Kontraktilität an kultivierten adulten Kardiomyozyten (positiv inotroper Effekt). Die Zellen wurden isoliert, mit Fura-2 beladen und einer Feldstimulation ausgesetzt. Bestimmt wurden die Calciumfluxe und Zellverkürzungsparameter (cell shortening parameters) unter basalen Bedingungen und in Gegenwart von DMSO, Isoproterenol , FMP-API-1 (10µM) oder 1016 (10µM). Dargestellt sind Mittelwerte ± SEM.

PKA [7] = assay: PKA activation in neonatal cardiomyocytes (Peptag phosphorylation); format: cell-based, Ratte; conditions: 300µM for 30 min, densitometry
Protocol: (§2) Die zeigt, dass die Substanzen 1016,1020,1021 und 1027 PKA in neonatalen Kardiomyozyten aus der Ratte aktivieren. Die Zellen wurden mit DMSO (Kontrolle), die Substanzen in 300µM Konzentrationen, oder dem Adenylylzyklaseaktivator Forskolin für 30 min inkubiert. Die Aktivierung der PKA wurde anhand der Phosphorylierung des fluoreszierenden Substratpeptids Peptag verfolgt und quantifiziert. Die semiquantitative Analyse der Peptag-Peptidephosphorylierung wurde densitometrisch vorgenommen. Angegeben sind relative densitometrische Einheiten (RDU; Mittelwerte ± SD).
as §2, with “zeigt,” for “Die zeigt,”, “Forskolin (FSK)” for “Forskolin”

[8] = biological target: Bindung von RIIα an Peptide, die aus der PKA-Bindedomäne von AKAP18δ abgeleitet sind (AKAP18δ-L314E) (Homo sapiens, UniProt P13861); assay: Biacore: inhibition of RIIα binding to immobilised peptide AKAP18δ-L314E; conditions: for Hemmung der Interaktion (RIIα-Bindung an das Peptid AKAP18δ-L314E): preincubation of RIIα for 2 h; for inhibition at 100 µM: read-out: maximale Hemmung (RIIα-Bindung an das Peptid AKAP18δ-L314E)
Sequence of Bindung von RIIα an Peptide, die aus der PKA-Bindedomäne von AKAP18δ abgeleitet sind (AKAP18δ-L314E) (P13861 whole entry, stated change not applied): as the sequence (P13861 whole entry) above
Text: Für das Experiment wurden Oberflächen mit dem Peptid beschichtet, mit RIIα-Untereinheiten inkubiert und die Reaktion in Biacore-Messungen verfolgt.

Bindungen des Peptids Ht31 und der Substanz an RIIα (RIIα) | Bindung an RIIα (RIIα) | Aktivierung der PKA in vitro (PKA [2]) | SMILES | cAMP-Spiegel [1] | Hemmung der Interaktionen von regulatorischen RII-Untereineinheiten der PKA (RIIα und β) mit AKAP150, Yotiao und AKAP18δ [3] | cAMP-Spiegel [4] | Oligomerisierung (Oligomers) von AKAP18δ und regulatorischen RIIα- und RIIβ-Untereinheiten [5] | Zunahme der gemessenen Parameter (linksventrikuläre Druckentwicklung, maximale Kontraktions- (CR) und Relaxationsraten (RR)) (Rattenherzen) | Phosphorylierung von Phopholamban (PLB) (Phopholamban (PLB)) | Kontraktilität (positiv inotroper Effekt) [6] | Aktivierung der PKA in neonatalen Kardiomyozyten (PKA [7]) | Hemmung der Interaktion (RIIα-Bindung an das Peptid AKAP18δ-L314E) [8] | inhibition at 100 µM [8] | inhibition at 100 µM ([8]; concentration 100 µM)
additiv | konzentrationsabhängigen Bindung |  | O=C(c1ccc(O)c(O)c1)c1ccc(O)c(O)c1 [Verbindung 1028, Bis-(3,4-dihydroxy-phenyl)-methanon] | steigern |  |  |  |  |  |  |  |  |  | 
 |  | aktiviert | Nc1cc(Cc2ccc(O)c(N)c2)ccc1O [Verbindung 18882, 3,3'-Diamino-4,4'-dihydroxydiphenylmethan, reference compound] |  | hemmen | steigern | induzieren die Oligomerisierung | ~17% | induzieren eine Zunahme | steigern |  |  |  | 
additiv | konzentrationsabhängigen Bindung |  | Oc1ccc(Cc2ccccc2)cc1O [Verbindung 1027, 4-Benzyl-pyrocatechol] | steigern |  |  |  |  |  |  | aktivieren |  |  | 
 |  |  | CC(c1ccc(O)c(N)c1)c1ccc(O)c(N)c1 [Verbindung 1020, 1,1-Bis-(3-Amino-4-hydroxyphenyl)-ethan] |  | hemmen | steigern | induzieren die Oligomerisierung |  | induzieren eine Zunahme |  | aktivieren | ~50% | ~50% | 
 |  |  | CC(c1ccc(O)cc1)c1ccc(O)c(N)c1 (stereo not shown) [Verbindung 1021, 3-Amino-1,1-bis-(4-hydroxyphenyl)-ethan] |  | hemmen | steigern | induzieren die Oligomerisierung |  | induzieren eine Zunahme |  | aktivieren | ~40% | ~50% | 
 | konzentrationsabhängigen Bindung |  | COc1ccc(Cc2ccc(OC)c(N)c2)cc1N [Verbindung 1030] |  |  |  |  |  |  |  |  |  |  | 
 |  |  | Nc1cc(Cc2ccc(O)cc2)ccc1O [Verbindung 1016, 3-Amino-4,4'-dihydroxydiphenylmethan] |  | hemmen | steigern | induzieren die Oligomerisierung |  | induzieren eine Zunahme | steigern | aktivieren | ~50% |  | ~60%
